Laboratory results published in the NIST ThermoML archive (doi:10.1021/je8006265).
Numbers after ± are expanded uncertainties.

Conditions: 298.15 K; 101.33 kPa; Crystal

For c1ccc2[nH]ccc2c1 [1H-indole], the mass density was 1216.68 ± 1.9 kg/m3.

Same assay, conditions: 298.15 K; 101.33 kPa; Liquid

In order of rising mass density:
1. CCCCCCCCCCCCCCCC [hexadecane]  773.19 ± 0.32 kg/m3
2. c1cc[nH]c1 [pyrrole]  965.9 ± 2.9 kg/m3
3. c1ccncc1 [pyridine]  978.25 ± 0.27 kg/m3
4. Nc1ccccc1 [aniline]  1017.42 ± 0.2 kg/m3
5. c1ccc2ncccc2c1 [quinoline]  1089.45 ± 0.31 kg/m3
